The record followed here is publication PMC12180986, “Molecular basis for differential PIP2-mediated association between vinculin and its splice isoform metavinculin” (The Journal of Biological Chemistry, 2025).

Where a chain is given by its changes, count along the chain named.

Assay type in all cases: binding
Assay [1] addresses T1, MVt (metavinculin tail domain) (Homo sapiens, UniProt P18206).
T1 construct: gene VCL; tail domain residues 879-1134; N-terminal His-tag removed by TEV; 2HR-T vector; E. coli BL21(DE3)
T1 sequence (P18206 879-1134): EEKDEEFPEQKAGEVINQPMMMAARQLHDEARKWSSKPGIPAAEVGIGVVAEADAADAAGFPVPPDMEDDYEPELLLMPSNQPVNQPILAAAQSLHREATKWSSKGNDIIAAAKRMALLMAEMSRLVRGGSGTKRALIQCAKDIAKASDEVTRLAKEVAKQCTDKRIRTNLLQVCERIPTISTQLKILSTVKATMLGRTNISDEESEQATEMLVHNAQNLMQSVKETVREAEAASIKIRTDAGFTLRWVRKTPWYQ
Briefly: high-speed lipid cosedimentation with LUVs, PIP2 gradient. The settings on record: 10 μM protein, PE/PC/PS LUVs with 0-30 mol% PIP2; one-site fit; pH 7.4, room temperature; the table also has a μM column, which looks inconsistent with the lipid amount. The text has this: (§1) high-speed lipid cosedimentation with LUVs, PIP2 gradient on MVt (metavinculin tail domain)

Assay [2] addresses T2, MVt (metavinculin tail domain) (Homo sapiens, UniProt P18206, A934V).
T2 construct: gene VCL; tail domain residues 879-1134; N-terminal His-tag removed by TEV; 2HR-T vector; E. coli BL21(DE3)
T2 sequence (P18206 879-1134 A934V): T1 sequence (P18206 879-1134) with A56V
The assay is described as above. The note with it: 10 μM protein, PE/PC/PS LUVs with 0-30 mol% PIP2; one-site fit; pH 7.4, room temperature; the table also has a μM column, which looks inconsistent with the lipid amount.
From the text: as §1

For assay [3], the target named is T3, Vt (vinculin tail domain) (Gallus gallus, UniProt P12003).
T3 construct: gene VCL; tail domain residues 879-1066; N-terminal His-tag removed by TEV; pQlinkH; E. coli BL21(DE3)
T3 sequence (P12003 879-1066 isoform P12003-1): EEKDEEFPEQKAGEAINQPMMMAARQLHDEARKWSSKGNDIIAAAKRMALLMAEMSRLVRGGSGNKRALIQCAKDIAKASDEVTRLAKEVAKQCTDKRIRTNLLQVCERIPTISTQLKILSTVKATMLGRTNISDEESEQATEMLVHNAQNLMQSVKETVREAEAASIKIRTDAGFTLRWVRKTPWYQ
Described as above. The settings on record: 10 μM protein, PE/PC/PS LUVs with 0-30 mol% PIP2; one-site fit; pH 7.4, room temperature; the table also has a μM column, which looks inconsistent with the lipid amount. The text has this: high-speed lipid cosedimentation with LUVs, PIP2 gradient on Vt (vinculin tail domain)

For assay [4], the target named is T1, MVt (metavinculin tail domain). The experiment in a line: high-speed lipid cosedimentation with LUVs, protein titration. The settings on record: protein titrated at fixed 10% PIP2 in PE/PC/PS/PIP2 LUVs; Kd in protein concentration; 40 mM Hepes, 150 mM NaCl, pH 7.4, room temperature; read-out: Protein concentration (μM) / app Kd. The text has this: high-speed lipid cosedimentation with LUVs, protein titration on MVt (metavinculin tail domain)

Assay [5] deals with T3, Vt (vinculin tail domain). Described as above. The settings on record: protein titrated at fixed 10% PIP2 in PE/PC/PS/PIP2 LUVs; Kd in protein concentration; 40 mM Hepes, 150 mM NaCl, pH 7.4, room temperature; read-out: Protein concentration (μM) / app Kd. The text has this:
high-speed lipid cosedimentation with LUVs, protein titration on Vt (vinculin tail domain)

“L-α-phosphatidylinositol-4,5-bisphosphate [PIP2]”: the “PIP2 (%) / app Kd” value in assay [1] is recorded as 9.20 ± 1.80 % PIP2 (mol%) in liposomes; in assay [2], 9.94 ± 2.52 % PIP2 (mol%) in liposomes; in assay [3], 8.89 ± 1.25 % PIP2 (mol%) in liposomes. For the same substance, the Kd in assay [4] is 4.66 ± 1.62 µM; in assay [5], 4.94 ± 1.56 µM.
